Experiments:
[1] = system: TPA-induced edema on mouse ear; assay: TPA-induced mouse ear inflammatory test; assay type: in vivo; conditions: 250 or 500 μg applied to ear 30 min before TPA (0.5 μg); edema evaluated after 7 h; Figure 3
Procedure: All animal studies were performed according to the guidelines outlined in the “Care and Use of Laboratory Animals” of Kobe University. The animals were anesthetized with pentobarbital before undergoing cervical dislocation. Female 8-week-old C57BL/6 mice that had been bred in-house with free access to food and water were used for all experiments. All of the mice were maintained under a 12-h light/dark cycle and housed at a room temperature of 25 °C.
The mouse inflammatory test was performed according to Gschwendt’s method. In brief, an acetone solution of the VK2 and VK3 intermediates (250 or 500 μg in 20 μL) or 20 μL of acetone as a vehicle control was applied to the inner part of the mouse ear. Thirty minutes after the test compound was applied, a TPA solution (0.5 μg/20 μL of acetone) was applied to the same part of the ear. To the other ear of the same mouse, methanol, followed by TPA solution, was applied as a control. After 7 h, a disk (6 mm diameter) was obtained from the ear and weighed. The inhibitory effect (IE) is presented as a ratio of the increase in weight of the ear disks: IE=[(TPA only)−(tested compound plus TPA)]/[(TPA only)−(vehicle)]×100

Calf DNA polymerase α = target: T1, Calf DNA polymerase α (Bos taurus, UniProt A0AAA9TD94); assay: DNA polymerase activity assay, calf pol α; assay type: biochemical; conditions: for Inhibitory effect on calf pol α activity: 50 μM of each compound, Figure 2
T1 construct: made in house
T1 sequence (A0AAA9TD94 1-1441): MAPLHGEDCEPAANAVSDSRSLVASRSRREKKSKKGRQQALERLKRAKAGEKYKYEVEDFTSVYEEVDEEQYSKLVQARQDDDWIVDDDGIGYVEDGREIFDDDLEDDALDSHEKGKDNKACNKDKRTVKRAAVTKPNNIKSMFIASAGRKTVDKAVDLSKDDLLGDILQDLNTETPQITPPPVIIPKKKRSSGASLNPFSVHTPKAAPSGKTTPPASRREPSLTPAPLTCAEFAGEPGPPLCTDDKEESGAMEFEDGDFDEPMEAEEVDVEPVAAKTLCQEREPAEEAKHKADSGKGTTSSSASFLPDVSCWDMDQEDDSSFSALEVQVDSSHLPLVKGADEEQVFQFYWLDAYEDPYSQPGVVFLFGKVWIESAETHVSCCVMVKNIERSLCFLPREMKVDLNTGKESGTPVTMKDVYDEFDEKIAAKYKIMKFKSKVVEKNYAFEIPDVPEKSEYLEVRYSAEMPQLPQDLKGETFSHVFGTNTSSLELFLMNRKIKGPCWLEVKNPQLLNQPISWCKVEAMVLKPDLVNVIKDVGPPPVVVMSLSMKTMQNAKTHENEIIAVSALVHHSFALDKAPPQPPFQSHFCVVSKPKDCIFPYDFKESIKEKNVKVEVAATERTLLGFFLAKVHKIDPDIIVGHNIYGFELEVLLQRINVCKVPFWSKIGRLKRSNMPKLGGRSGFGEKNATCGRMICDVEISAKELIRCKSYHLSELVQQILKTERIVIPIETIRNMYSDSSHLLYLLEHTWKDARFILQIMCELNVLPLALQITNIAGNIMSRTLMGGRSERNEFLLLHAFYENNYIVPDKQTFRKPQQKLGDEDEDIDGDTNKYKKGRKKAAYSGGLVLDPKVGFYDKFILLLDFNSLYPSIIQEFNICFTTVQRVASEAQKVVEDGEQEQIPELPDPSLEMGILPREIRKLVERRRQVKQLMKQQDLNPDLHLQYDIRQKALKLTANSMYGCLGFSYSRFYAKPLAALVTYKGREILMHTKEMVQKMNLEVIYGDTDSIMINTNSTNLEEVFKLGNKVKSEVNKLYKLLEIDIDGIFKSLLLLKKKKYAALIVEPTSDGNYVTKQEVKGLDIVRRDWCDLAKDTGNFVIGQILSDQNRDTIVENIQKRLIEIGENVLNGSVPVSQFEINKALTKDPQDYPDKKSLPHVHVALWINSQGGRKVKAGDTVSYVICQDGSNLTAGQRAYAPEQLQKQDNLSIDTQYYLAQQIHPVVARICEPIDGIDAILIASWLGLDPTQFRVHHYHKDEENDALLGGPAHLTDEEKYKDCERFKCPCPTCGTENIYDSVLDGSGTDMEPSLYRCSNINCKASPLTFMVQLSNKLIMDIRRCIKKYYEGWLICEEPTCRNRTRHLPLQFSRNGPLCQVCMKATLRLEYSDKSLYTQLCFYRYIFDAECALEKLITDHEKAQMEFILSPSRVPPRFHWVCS
Procedure: Pols from mammals, a fish (cherry salmon), an insect (fruit fly) and a plant (cauliflower) were purified, and prokaryotic pols and other DNA metabolic enzymes, such as T7 RNA polymerase, T4 polynucleotide kinase and bovine deoxyribonuclease I, were purchased as described in our previous report. The activities of all pols and other DNA metabolic enzymes were measured as described in previous reports.
The components of the pol assay were poly(dA)/oligo(dT)18 and dTTP as the DNA template-primer and 2′-deoxyribonucleoside 5′-triphosphate (dNTP) substrate, respectively. VK2, VK3, and their synthesized derivatives (i.e., MK-3, MK-2 and MK-1) were dissolved in dimethyl sulfoxide (DMSO) at various concentrations and sonicated for 30 s. The sonicated samples (4 μL) were mixed with 16 μL of each pol enzyme (final amount, 0.05 units) in 50 mM Tris-HCl (pH 7.5) containing 1 mM dithiothreitol, 50% glycerol and 0.1 mM EDTA, and kept at 0 °C for 10 min. These inhibitor–enzyme mixtures (8 μL) were added to 16 μL of each standard enzyme reaction mixture (50 mM Tris-HCl [pH 7.5], 1 mM dithiothreitol, 1 mM MgCl2, 15% glycerol, 10 μM poly(dA)/oligo(dT)18 and 10 μM [^3H]-dTTP), and incubation was carried out at 37 °C for 60 min, except for Taq pol, which was incubated at 74 °C for 60 min. Activity without the inhibitor was considered to be 100%, and the activity remaining at each concentration of inhibitor was determined relative to this value. One unit of pol activity was defined as the amount of enzyme that catalyzed the incorporation of 1 nmol dNTP (dTTP) into the synthetic DNA template-primer (poly(dA)/oligo(dT)18, A/T = 2/1) in 60 min at 37 °C under normal reaction conditions for each enzyme (scintillation counts: approximately 1 pmol of incorporated radioactive nucleotides = 100 cpm).

Structure (SMILES)	Anti-inflammatory activity toward TPA-induced edema on mouse ear [1]	Inhibitory effect on calf pol α activity (Calf DNA polymerase α)	IC50 (Calf DNA polymerase α; B-family pol, read-out: IC50 Value of MK-2, Calf DNA polymerase α)
CC(C)=CCC/C(C)=C/CC/C(C)=C/CC/C(C)=C/CC1=C(C)C(=O)c2ccccc2C1=O [MK-4, menaquinone 4, reference compound]	weak effect	had no effect on pol activity	
CC(C)=CCC/C(C)=C/CC1=C(C)C(=O)c2ccccc2C1=O [MK-2]	suppressed inflammation	inhibited the activity	27.6 ± 1.6 µM
CC(C)=CCC/C(C)=C/CC/C(C)=C/CC1=C(C)C(=O)c2ccccc2C1=O [MK-3]	weak effect	inhibited the activity	
CC(C)=CCC1=C(C)C(=O)c2ccccc2C1=O [MK-1]	suppressed inflammation	inhibited the activity	
